The values that follow come from patent US7867990B2, “Steroid hormone products and methods for preparing them” (Ortho-McNeil Pharmaceutical, Inc., priority 2001, dated 2011).

The nature of data set [1]: PXRD pattern of norgestimate:lactose mixtures after milling. It is filed as physicochemical. The following applies: milled 20 minutes, mill type not specified at the place. On the procedure:
Research efforts were thus made to generate the non-crystalline form of norgestimate in the presence and absence of lactose via physical and mechanical processes. Various mixtures of norgestimate and lactose were prepared. To permit qualitative or semi-quantitative analysis, the ingredients were thoroughly mixed in ratios of 1:1 and 1:9 by either dissolving them in a co-solvent mixture or by co-grinding. Qualitative assessment of the degree of crystallinity was performed employing Powder X-Ray Diffractometry (PXRD).
Mixtures of norgestimate and lactose, in amorphous and crystalline forms, were milled for 20 minutes. The amorphous state of each ingredient and of the mixture was confirmed by powder x-ray pattern diffraction (PXRD).

Data set [2] can be described thus: Dissolution of norgestimate co-milled with lactose 1:9 in 100 ml 0.05% Tween 20 as a function of storage time. It is filed as physicochemical. The settings on record: for Norgestimate Concentration Time = 0 Days: storage 0 days; for Norgestimate Concentration Time = 44 Days: stored 44 days at 40° C./75% RH.
Data set [3] is described as follows: Dissolution of norgestimate from tablets manufactured by dry processing, pilot and production scale. Type of data set: physicochemical. The settings on record: dry-processed tablets. On the procedure:
Differences in the dissolution behavior of norgestimate from tablets manufactured by dry processing on both a pilot scale and a production scale were also evaluated. The minimum mechanical energy of 0.1 hp-min/kg can be imparted in a dry process using a geometric tumbler blender equipped for additional mixing energy with blades or choppers. A progestin such as norgestimate can be combined with lactose and additives. Increasing the length of processing time with the blades or choppers in use would impart sufficient energy to produce the forms identified in this invention. […] The important of dissolution rate as a function of mixing time is also noted.

A short description of data set [4]: Dissolution of norgestimate from tablets manufactured by wet processing, initial and after accelerated storage. Type of data set: physicochemical. The following applies: for Percent Norgestimate Dissolved in 30 Minutes, 1 month 40° C./75% RH: wet-processed tablets stored unprotected; for Percent Norgestimate Dissolved in 30 Minutes, Initial: wet-processed tablets. From the text:
The data in Table 4 further support the existence of a high energy form of norgestimate in the presence of lactose. […] Like the data reported in Table 2, dissolution properties are dependent on storage conditions. However it is apparent that the extent of such changes is further dependent on the mixing energetics imparted during the process.

A short description of data set [5]: Physical stability (recrystallization) of amorphous materials in humidity chambers, followed by PXRD. The settings on record: for Stability of Amorphous Norgestimate (onset of norgestimate recrystallization), 0% RH: 0% RH humidity chamber; for Stability of Amorphous Norgestimate (onset of norgestimate recrystallization), 0% RH / Stability of Amorphous Norgestimate (onset of norgestimate recrystallization), 31% RH / Stability of Amorphous Norgestimate (onset of norgestimate recrystallization), 76% RH: PXRD; for Stability of Amorphous Norgestimate (onset of norgestimate recrystallization), 31% RH: 31% RH humidity chamber; for Stability of Amorphous Norgestimate (onset of norgestimate recrystallization), 76% RH: 76% RH humidity chamber.

Data set [6] in a line: Dissolution of crystalline and non-crystalline norgestimate (USP Apparatus 2, 75 rpm, 600 ml of 0.05% Tween 20). The following applies: 600 ml 0.05% Tween 20. Type of data set: physicochemical. On the procedure: Employing the current dissolution standard (USP Apparatus 2, 75 rpm, 600 ml of 0.05% Tween 20), the dissolution rates and extent of dissolution for individual samples of both crystalline and non-crystalline norgestimate were compared. […]

The nature of data set [7]: DSC thermal analysis: glass-transition temperature (Tg) and crystallization exotherm (Tc). It is filed as physicochemical. How it is done: The lactose/norgestimate mixtures made as in Example 2 were subjected to thermal analysis, according to conventional Differential Scanning Calorimetry (DSC). […] Glass-transition temperature measurements generally entail trial runs on a DSC to obtain an optimal method for observing glass-transition events. […] Some amorphous norgestimate samples produce a weak Tg event at 122-123° C., while other samples shown an exothermic event, probably because of norgestimate crystallization. All of the norgestimate samples show a similar endothermic event at 226-228° C. The thermal gravimetric analysis (TGA) of samples show rapid weight loss at that temperature, therefore, the endotherm over 220° C. primarily corresponds to decomposition. The Merck Index lists the melting temperature of the crystalline norgestimate at 214-218° C. […] This thermal event (Tc) was used to measure the stability of different simulated drug products. The temperature of Tc- should be higher if norgestimate is stabilized by lactose.

`OC[C@H]1O[C@@H](O[C@H]2[C@H](O)[C@@H](O)C(O)O[C@@H]2CO)[C@H](O)[C@@H](O)[C@H]1O` (stereo partly shown) [lactose]: the “Solid-state form of lactose after milling with norgestimate (PXRD)” value in data set [1] is “partially crystalline”.

Regarding `C#C[C@]1(OC(C)=O)CC[C@H]2[C@@H]3CCC4=CC(=NO)CC[C@@H]4[C@H]3CC[C@@]21CC` (mixture of isomers) [Norgestimate, norgestimate], the “Norgestimate Concentration Time = 0 Days” value is 5.3 µg/mL in data set [2] (dissolution time 10 min); 5.1 µg/mL in data set [2] (dissolution time 20 min); 6.2 µg/mL in data set [2] (dissolution time 30 min); 8.7 µg/mL in data set [2] (dissolution time 60 min); 10 µg/mL in data set [2] (dissolution time 240 min); 10.3 µg/mL in data set [2] (dissolution time 720 min). Further, the “Norgestimate Concentration Time = 44 Days” value in data set [2] (dissolution time 10 min) was 2.4 µg/mL; in data set [2] (dissolution time 20 min), 5.2 µg/mL; in data set [2] (dissolution time 30 min), 6.5 µg/mL; in data set [2] (dissolution time 60 min), 5.9 µg/mL; in data set [2] (dissolution time 240 min), 6.7 µg/mL; in data set [2] (dissolution time 720 min), 7.3 µg/mL. Besides, the “Percent Norgestimate Dissolved in 20 Minutes” value was 78.4% in data set [3] (pilot scale, mixing time 5 minutes); 85% in data set [3] (pilot scale, mixing time 10 minutes); 88.5% in data set [3] (pilot scale, mixing time 20 minutes); 97.4% in data set [3] (pilot scale, mixing time 30 minutes); 93.6% in data set [3] (pilot scale, mixing time 33 minutes); 74.9% in data set [3] (pilot scale, mixing time […]). The “Percent Norgestimate Dissolved in 20 Minutes” value in data set [3] (production scale, mixing time 4.8 minutes) is reported as 64.7%; in data set [3] (production scale, mixing time 12 minutes) it was 81.2%; in data set [3] (production scale, mixing time 15 minutes), 90.3%; in data set [3] (production scale, mixing time 30 minutes) it was 92.8%; in data set [3] (production scale, mixing time 45 minutes), 96.2%; in data set [3] (production scale, mixing time 60 minutes), 97.4%. The “Percent Norgestimate Dissolved in 20 Minutes” value in data set [3] (production scale, mixing time 75 minutes) was 97.2%. The “Percent Norgestimate Dissolved in 30 Minutes, 1 month 40° C./75% RH” value in data set [4] (blend time 0 minutes) was 36%; in data set [4] (blend time 2* minutes), 45%; in data set [4] (blend time 20 minutes), 45%; in data set [4] (blend time 40 minutes) it was 46%; in data set [4] (blend time 60 minutes), 85%. For the same compound, the “Percent Norgestimate Dissolved in 30 Minutes, Initial” value in data set [4] (blend time 0 minutes) is given as 75.4%; in data set [4] (blend time 2* minutes) it was 91%; in data set [4] (blend time 20 minutes) it was 90.1%; in data set [4] (blend time 40 minutes), 92.6%; in data set [4] (blend time 60 minutes), 94.5%. Also, the “Solid-state form of norgestimate after milling with lactose (PXRD)” value in data set [1] is “non-crystalline”. For the same compound, the “Stability of Amorphous Norgestimate (onset of norgestimate recrystallization), 0% RH” value in data set [5] is reported as less than 3 days. Further, in data set [5], the “Stability of Amorphous Norgestimate (onset of norgestimate recrystallization), 31% RH” value is given as less than 1 day days. Also, the “Stability of Amorphous Norgestimate (onset of norgestimate recrystallization), 76% RH” value in data set [5] is listed as less than 1 day days. The “Time to recrystallization of norgestimate” value in data set [5] (in the absence of lactose, room temperature, 0% RH chamber) is no more than 3 days. For the same compound, the “Time norgestimate remained partially crystalline” value in data set [5] (norgestimate co-milled with lactose 1:9, approximately 40° C. at 75% RH) was “at least 44 days”.

As to `C#C[C@]1(OC(C)=O)CC[C@H]2[C@@H]3CCC4=CC(=NO)CC[C@@H]4[C@H]3CC[C@@]21CC` [Crystalline Norgestimate, norgestimate], the Norgestimate concentration dissolved in data set [6] (dissolution time 5 min) was 0.43 µg/mL; in data set [6] (dissolution time 60 min), 0.81 µg/mL; in data set [6] (dissolution time 140 min), 1.36 µg/mL.

With `OC[C@H]1O[C@@H](O[C@H]2[C@H](O)[C@@H](O)C(O)O[C@@H]2CO)[C@H](O)[C@@H](O)[C@H]1O` (stereo partly shown) [Amorphous lactose, lactose], the “Tg (glass-transition temperature)” value in data set [7] is 114-115 °C.

Take `C#C[C@]1(OC(C)=O)CC[C@H]2[C@@H]3CCC4=CC(=NO)CC[C@@H]4[C@H]3CC[C@@]21CC` (mixture of isomers) [Amorphous Norgestimate, norgestimate]: the Norgestimate concentration dissolved in data set [6] (dissolution time 5 min) is 0.44 µg/mL. Also, the Norgestimate concentration dissolved in data set [6] (dissolution time 60 min) was 1.38 µg/mL. The Norgestimate concentration dissolved in data set [6] (dissolution time 120 min) is 1.88 µg/mL. In data set [7], the “Tc (crystallization of norgestimate)” value is 105 °C and the “Tg (glass-transition temperature)” value is 122-123 °C. Further, in data set [5], the “Stability of Amorphous Norgestimate (onset of norgestimate recrystallization), 0% RH” value is less than 3 days; the “Stability of Amorphous Norgestimate (onset of norgestimate recrystallization), 31% RH” value is “less than 1 days”; the “Stability of Amorphous Norgestimate (onset of norgestimate recrystallization), 76% RH” value was “less than 1 days”. Also, the “Time to complete recrystallization of amorphous norgestimate” value in data set [5] (room temperature, 0%, 31% and 76% RH (all conditions tested)) was no more than 3 days.
